{"source": "patent US6149904A", "about": "“Method for inhibiting tumor cell growth by administering to tumor cells expressing a nucleic acid encoding a connexin and a pro-drug” (The Regents of the University of California, priority 1997, dated 2000)", "key": {"[1]": {"tested_on": "9L tumor cells mixed with HSV-tk+ connexin43- fibroblasts", "assay": "GCV treatment of 9L tumors with HSV-tk+ connexin43- fibroblasts (Example 4)", "format": "in vivo, athymic mice", "protocol": "(§1) 5 athymic (immuno-incompetent) mice were injected subcutaneously with mixtures of 1×10^7 9L tumor cells and either immortalized connexin43^- mouse fibroblasts engineered to express HSV-tk (5 mice) or immortalized mouse fibroblasts from normal mice which express connexin 43 and had also been engineered to express HSV-tk (5 mice). The inoculated cells were allowed to grow into tumors. The tumor-bearing animals were treated with GCV (25 mg/kg) for 7 days. Tumor size was monitored and 14 days following the initiation of GCV treatment the tumors were removed. In a parallel experiment, animals injected with a mixture of 1×10^79L tumor cells and with immortalized connexin43^- mouse fibroblasts engineered to express HSV-tk were mock-treated with sham injections of phosphate buffeted saline (PBS) lacking GCV.\nTwo other groups of 5 animals inoculated with mixtures of 9L cells and HSV-tk^+ fibroblasts derived from cells lacking any connexin43 genes were identically treated."}, "[2]": {"tested_on": "9L glial tumor cells mixed with PA317 fibroblasts expressing HSV-tk", "assay": "GCV tumor toxicity, co-injected tumor cells and HSV-tk PA317 fibroblasts (Example 1)", "format": "in vivo, athymic BALB/C mice", "conditions": "GCV 25 mg/kg BID 7 days; tumors removed 14 days after start of GCV; 9L (high coupling) vs C6 (low coupling); FIG. 3", "protocol": "The HSV-tk gene was stably cloned into a PA/317 fibroblasts as described in Mol. Cell. Biol. 6:2895-2902 (1986) and New Eng. J. Med. 232:570-578 (1990). Athymic (immune-incompetent) BALB/C mice were injected subcutaneously with mixtures of: 1) 1×10^7 tumor cells known to have either high (9L glial tumor cells) or low (C6 glial tumor cells) levels of gap junction mediated intercellular transport, and 2) 1×10^7 immortalized mouse fibroblasts (PA317 cells) engineered to express HSV-tk. The mixtures of inoculated cells were allowed to grow into tumors over a period of 7-14 days (the time for detectable tumor formation varied depending on the identity and number of injected cells). The tumor-bearing animals were then treated for 7 days with GCV (25 mg/kg, BID) or with phosphate buffeted saline (PBS). Tumor size was periodically monitored.\n14 days following the initiation of GCV treatment the tumors were removed. FIG. 3 summarizes the average weight of tumors following their removal. […] Thus, tumor toxicity was greater in tumors with higher levels of gap junction mediated intercellular transport."}, "[3]": {"tested_on": "9L tumor cells mixed with HSV-tk+ fibroblasts expressing connexin43", "assay": "GCV treatment of 9L tumors with HSV-tk+ fibroblasts expressing connexin43 (Example 4)", "format": "in vivo, athymic mice", "protocol": "as §1\nOf the 5 animals with tumors consisting of 9L cells and HSV-tk^+ fibroblasts expressing connexin43, only 3 animals still had detectable tumors when examined 7 days after the completion of GCV therapy. […] A matched control group of 5 animals which received sham injections of phosphate buffeted saline (PBS) instead of GCV all had tumors 7 days after the completion of this \"sham treatment\"."}, "9L glial tumor cells": {"tested_on": "9L glial tumor cells", "assay": "GCV therapy after injecting HSV-tk+ PA317 fibroblasts into pre-existing tumors (Example 2)", "format": "in vivo, athymic mice", "conditions": "GCV 25 mg/kg BID 7 days from 24 h after fibroblast injection; tumors weighed 14 days after start; FIG. 4", "protocol": "5 athymic (immuno-incompetent) mice were injected subcutaneously with 1×10^7 tumor cells known to have either high (9L glial tumor cells) or low (C6 glial tumor cells) levels of gap junction mediated intercellular transport. 1×10^7 HSV-tk^+ fibroblasts (PA317 cells) were injected into the center of tumors that were formed. GCV therapy (25 mg/kg, BID) was commenced 24 hours later and continued for 7 days. 14 days following the initiation of GCV treatment the tumors were removed and weighed.\nThese findings indicate the importance of gap junction mediated transport for the bystander killing of tumor cells."}}}
{"smiles": "Nc1nc(O)c2ncn(COC(CO)CO)c2n1", "note": "[GCV, Ganciclovir]", "values": [{"measurement": "therapeutic effect of GCV administration against tumors", "setting": "[1]; GCV 25 mg/kg 7 days, fibroblasts with connexin genes deleted, FIG. 6", "result": "not effective"}, {"measurement": "animals with tumors (of 5)", "setting": "[1]; after 7 days of GCV treatment, 5 animals in group", "result": 5, "unit": "animals"}, {"measurement": "average tumor weight", "setting": "[1]; after 7 days of GCV treatment, group without GCV 5.68 g", "result": 5.43, "unit": "g"}, {"measurement": "tumor size (average weight of tumors) versus C6 tumors treated with GCV", "setting": "[2]", "result": "significantly smaller"}, {"measurement": "animals with detectable tumors (of 5)", "setting": "[3]; 7 days after completion of GCV therapy, 5 animals in group", "result": 3, "unit": "animals"}, {"measurement": "average tumor weight", "setting": "[3]; GCV 25 mg/kg 7 days, 7 days after completion of GCV therapy, PBS sham control 4.35 g", "result": 0.63, "unit": "g"}, {"measurement": "therapeutic effect of GCV administration against tumors", "setting": "[3]; GCV 25 mg/kg 7 days, fibroblasts with normal connexin 43 genes, FIG. 6", "result": "highly therapeutic effect"}, {"measurement": "effect of GCV treatment on tumor weight, 9L versus C6 tumors", "setting": "9L glial tumor cells", "result": "greater in 9L cells"}]}
